Article PMC12865225 (Clinical and Translational Science, 2026)
Marks after values point to notes of the source that are not given here.

How the values were obtained:
OAT3 = target: T1, OAT3 (Homo sapiens, UniProt Q8TCC7); assay: OAT3 inhibition, fluorescein uptake into HEK293 cells; type: cell-based; set-up: expressed in transfected cells; host or cells: HEK293 (recombinant baculovirus-mediated transduction); conditions: R = I max,u/IC50, FDA cut-off ≥ 0.1
T1 sequence (Q8TCC7 1-542): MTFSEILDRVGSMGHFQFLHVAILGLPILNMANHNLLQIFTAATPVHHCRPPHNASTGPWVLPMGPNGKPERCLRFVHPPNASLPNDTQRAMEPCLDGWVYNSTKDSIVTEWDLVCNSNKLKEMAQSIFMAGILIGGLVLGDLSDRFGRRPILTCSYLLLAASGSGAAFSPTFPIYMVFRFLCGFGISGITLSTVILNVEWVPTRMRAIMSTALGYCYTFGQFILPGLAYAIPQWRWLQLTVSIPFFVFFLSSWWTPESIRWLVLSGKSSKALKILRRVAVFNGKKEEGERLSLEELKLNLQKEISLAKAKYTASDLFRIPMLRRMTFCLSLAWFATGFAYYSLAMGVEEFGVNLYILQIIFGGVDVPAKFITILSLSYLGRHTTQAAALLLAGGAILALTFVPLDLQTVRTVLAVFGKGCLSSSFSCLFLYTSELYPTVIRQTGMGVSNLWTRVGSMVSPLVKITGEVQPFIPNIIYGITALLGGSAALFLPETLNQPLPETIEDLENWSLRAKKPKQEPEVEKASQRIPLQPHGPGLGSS
Experimental: The human transporters OATP1B1, OATP1B3, OATP2B1, and OAT1‐OAT4 and a negative control protein (enhanced yellow fluorescent protein, eYFP) were transiently expressed in human embryonic kidney 293 (HEK293) cells by recombinant baculovirus‐mediated transduction. Baculoviruses carrying human genes for the transporters were prepared as reported previously. HEK293 cells were cultured in DMEM containing 10% fetal bovine serum at 37°C and 5% CO2 and passaged two to three times per week. For the transport studies, 0.05 × 10^6 cells for 48‐well plates (OATPs) or 0.06 × 10^6 cells for 24‐well plates (OATs) were seeded onto cell‐culture treated well plates coated with poly‐D‐lysine. […]
In the OATP inhibition assays, inhibitors in warm TP‐buffer were directly applied to cells after media removal, followed by a 30‐min preincubation step in the presence of inhibitors. […] OAT1 and OAT3 cells were lysed with 200 μL of 1 M sodium hydroxide for 10 min, and 150 μL of these samples were transferred to a black well plate for fluorescein quantification. […]
For the inhibition data analysis, the average of measured concentrations in the control cells was subtracted from the average of measured concentrations in transporter‐expressing cells for each inhibitor concentration and then normalized to the vehicle sample that represents 100% transport activity. […]

[1] = PBPK model input parameters (binding, absorption, distribution, elimination), Simcyp; set-up: species or system human
Experimental: The volume of distribution
at steady-state (Vss), predicted using the Rodgers and Rowland model (Model 2) within the
oral (PO) data.7–9,11,12,14,24 Only studies with 1000 mg dosing or lower were included in the
model development and verification due to the possible nonlinear renal clearance of
(CLH) as a human liver microsomal clearance from the in vivo CLH calculated by subtracting
the CLR from the total CL. The model for oral dosing was optimized using data from the study
by Putnam et al. (2005).9 The absorption rate constant (ka) was calculated from the reported
mean absorption time9 and the fraction absorbed (fa) was optimized manually. The obtained
Tissue distribution was described using the full-body PBPK model, with the tissue-to-plasma
partition coefficient (Kp) predicted based on the Rodgers and Rowland method integrated
within the simulator (Method 2). The Kp value for adipose was optimized manually (0.04 to

[2] = retrograde calculation from CLH (2.65 l/h)

Compound	Calculated R-value OAT3 (OAT3)	CLH ([1]; Total CL – CLR) [L/h]	CLu,int,CYP2C9 (µl/min/pmol P450) [1, 2] [µl/min/pmol P450]	CLu,int,CYP3A4 (µl/min/pmol P450) [1, 2] [µl/min/pmol P450]
Cc1onc(-c2c(F)cccc2Cl)c1C(=O)N[C@@H]1C(=O)N2[C@@H]1SC(C)(C)[C@@H]2C(=O)O [Flucloxacillin]	0.1 ^c	2.65	0.124	0.062
Cc1onc(-c2c(Cl)cccc2Cl)c1C(=O)N[C@@H]1C(=O)N2[C@@H]1SC(C)(C)[C@@H]2C(=O)O [Dicloxacillin]	0.07 ^c	–	–	–
